Source: patent EP1182208A2, “Composition for DNA transfection” (Roche Diagnostics GmbH, priority 2000, dated 2002)

Assays:
HEK293-EBNA cells [1] = experiment: Influence of antibiotics on transient transfection in HL medium, luciferase expression (Example 13); type: cell-based, Human; details: control without = 100, compound from Example 2 and PEI
Protocol: 1 mg of the compound from Example 2 was dissolved in 0.5 ml acetonitrile, mixed for 3-5 minutes at 37 °C, diluted in 0.5 ml sterile, pure water (1 mg/ml) and stored at 4 °C. 90 mg polyethelenimine (PEI), with a molecular weight of 25 kDa, were dissolved in sterile, pure water (0.9 mg/ml), neutralized with HCl, sterile filtered and stored at 4 °C. 3 µl of a plasmid solution (1 mg/ml) encoding the luciferase gene was added to 1.5 ml HL medium (containing 0.3% Primatone RL) and mixed. After 2 minutes incubation at room temperature, 2.25 µl of the compound from Example 2 (1mg/ml) was added and mixed, followed by 8.3 µl PEI (0.9 mg/ml). After mixing and incubation for 15-30 minutes at room temperature, the mixture was transferred into 15 ml of HEK293-EBNA cells containing different antibiotics. Cells which were grown in serum-free suspension culture in HL medium (containing 0.3% Primatone RL and different antibiotics) were transferred into fresh HL medium (containing 0.3% Primatone RL and different antibiotics), then adjusted to 5.5-6 x 10^6 cells/ml before adding the DNA complexes. The luciferase activity was measured in the soluble cell extract after 20-22 hours incubation time and expressed as relative light units per ml culture.

HEK293-EBNA cells [2] = experiment: Effect of various compounds on DNA complex formation in DMEM/HAM F12 medium, luciferase expression (Example 11); type: cell-based, Human
Protocol: 1 mg of the compound from Example 2 was dissolved in 0.5 ml acetonitrile, mixed for 3-5 minutes at 37 °C, diluted in 0.5 ml sterile, pure water (1 mg/ml) and stored at 4 °C. 90 mg polyethelenimine (PEI), with a molecular weight of 25 kDa, were dissolved in sterile, pure water (0.9 mg/ml), neutralized with HCl, sterile filtered and stored at 4 °C.
Different growth promotion compounds were added to 1.5 ml DMEM/HAM F12 medium (without any compounds) and mixed. After 2-3 minutes, 3 µl of a plasmid solution (1 mg/ml) encoding the luciferase gene was added to the 1.5 ml […] and mixed. After 2 minutes incubation at room temperature, 2.25 µl of the compound from Example 2 (1mg/ml) was added and mixed, followed by 8.3 µl PEI (0.9 mg/ml). After mixing and incubation for 15-30 minutes at room temperature, the mixture was transferred into 15 ml of HEK293-EBNA cells. Cells which were grown in serum-free suspension culture in HL medium (containing 0.3% Primatone RL) were transferred into fresh HL medium (containing 0.3% Primatone RL) then adjusted to 5.5-6 x 10^6 cells/ml before adding the DNA complexes. The luciferase activity was measured in the soluble cell extract after 20-22 hours incubation time and expressed as relative light units per ml culture. […]

HEK293-EBNA = experiment: Luciferase transfection efficiency, serum-free suspension culture (Example 5); type: cell-based, Human; details: soluble cell extract after 24 hours
Protocol: (§1) 1 mg of the compound obtained in Example 2 was dissolved in 500 µl sterile pure water (1 mg/ml) and stored at 4 °C. 90 mg polyethyleneimine, with a molecular weight of 25 kDa, was dissolved in sterile pure water (0.9 mg/ml), neutralized with HCl, sterile filtered and stored at room temperature.
(§2) 3 µl of a plasmid solution (1 mg/ml) encoding the luciferase gene was diluted in 1.5 ml culture medium and mixed. 2.25 µl compound (1 mg/ml) as described in Example 2 was added, mixed and followed by 8.3 µl PEI (0.9 mg/ml). After mixing and incubation for 10 minutes at room temperature, the mixture was transferred into 15 ml of various cells. Cells which were grown in serum-free suspension culture were transferred into fresh medium before adding the complexes. The luciferase activity was measured in the soluble cell extract after 24 hours incubation and expressed as relative light unit (RLU) per milligram protein.

HEK293 = experiment: as above; type: cell-based, Human; details: soluble cell extract after 24 hours
Protocol: as §1, §2

HEK293-EBNA cells [3] = experiment: Cell viability of transfected HEK293-EBNA cells in serum-free suspension culture (Example 3); type: cell-based, Human; details: compound-mediated transfection; serum-free suspension culture of HEK293-EBNA cells
Protocol: (§3) 1 mg of the compound obtained in Example 2 was dissolved in 500 µl acetonitrile, diluted in 500 µl sterile pure water (1 mg/ml) and stored at 4 °C. 15 µl of a plasmid solution (1 mg/ml) encoding the soluble human tumor necrosis factor receptor p55 gene was transferred into 1.5 ml medium and mixed. Various amounts of the compound obtained in […] was added, mixed and after 10 minutes at room temperature, the mixture was transferred to 15 ml HEK293-EBNA cells in suspension.

[4] = as above; type: cell-based, Human; details: human, HEK293-EBNA cells in suspension, serum-free suspension culture
Protocol: as §3

CHO dhfr- = experiment: Luciferase transfection efficiency, serum-free suspension culture (Example 5); type: cell-based; details: soluble cell extract after 24 hours
Protocol: as §1, §2

Glioma C6 = experiment: as above; type: cell-based; details: soluble cell extract after 24 hours
Protocol: as §1, §2

BHK 21 Cl = experiment: as above; type: cell-based; details: soluble cell extract after 24 hours
Protocol: as §1, §2

HEK293-EBNA cells [5] = experiment: Transient transfection of HEK293-EBNA cells in serum-free suspension culture, expression of soluble TNF receptor p55 (Example 3); type: cell-based, Human
Protocol: as §3

Compound: Gentamycin
- Luciferase activity (HEK293-EBNA cells [1]; antibiotic 50 µg/ml in HL medium with Primatone RL (0.3%)): 80%

Compound: NC(=O)CC[C@H](N)C(=O)O [Glutamine 200 mM, Glutamine]
- % Increase (HEK293-EBNA cells [2]; additive 1:100, Primatone RL was set as 100 %): 13%
- Luciferase activity (HEK293-EBNA cells [2]; additive dilution 1:100 in DMEM/HAM F12, compound from Example 2 and PEI): 1.06 RLU x 10^9/ml

Compound: C[C@H]1c2cccc(O)c2C(=O)C2=C(O)[C@]3(O)C(=O)C(C(N)=O)=C(O)[C@@H](N(C)C)[C@@H]3[C@@H](O)[C@@H]21 [Doxycycline]
- Luciferase activity (HEK293-EBNA cells [1]; antibiotic 2 µg/ml in HL medium with Primatone RL (0.3%)): 89%

Compound: CCCCCCCC/C=C\CCCCCCCC(=O)OC[C@H](COP(=O)(O)OCCNC(=O)CCSSC[C@@H](NC(=O)[C@H](NC(=O)CNC(=O)[C@@H](C)NC(=O)[C@H](NC(=O)[C@@H](CC(C)C)NC(=O)[C@@H](CCCCN)NC(=O)[C@H](NC(=O)[C@@H](CC(C)C)NC(=O)[C@H](NC(=O)[C@H](NC(=O)CNC(=O)[C@@H](CC(C)C)NC(=O)[C@H]1CCCN1C(=O)[C@@H](C)NC(=O)[C@@H](CC(C)C)NC(=O)[C@H](NC(=O)[C@@H](CO)NC(=O)[C@@H](Cc1c[nH]c2ccccc12)NC(=O)[C@H](NC(=O)[C@@H](CCCCN)NC(=O)[C@@H](CCCNC(=N)N)NC(=O)[C@@H](CCCCN)NC(=O)[C@@H](CCCNC(=N)N)NC(=O)[C@@H](CCC(N)=O)NC(=O)[C@H](N)CCC(N)=O)[C@H](C)CC)[C@H](C)CC)[C@H](C)O)[C@H](C)O)C(C)C)C(C)C)[C@H](C)CC)C(N)=O)OC(=O)CCCCCCC/C=C\CCCCCCCC [Compound, retro-inverso dioleylmelittin]
- Luciferase activity (HEK293-EBNA): 2.2 x 10^6 RLU/mg protein
- Luciferase activity (HEK293): 1.8 x 10^6 RLU/mg protein
- cell toxicity effects (HEK293-EBNA cells [3]): absence of detectable cell toxicity effects
- viability at 1 µg/mL ([4]; Compound 1 µg/ml): 90 to 95%
- viability at 2 µg/mL ([4]; Compound 2 µg/ml): 90 to 95%
- viability at 4 µg/mL ([4]; Compound 4 µg/ml): 90 to 95%
- viability at 6 µg/mL ([4]; Compound 6 µg/ml): 90 to 95%
- viability at 10 µg/mL ([4]; Compound 10 µg/ml): 90 to 95%
- Luciferase activity (CHO dhfr-): 1.4 x 10^6 RLU/mg protein
- Luciferase activity (Glioma C6): 5.8 x 10^6 RLU/mg protein
- Luciferase activity (BHK 21 Cl): 5.2 x 10^5 RLU/mg protein
- TNFRp55 (HEK293-EBNA cells [5]; Compound 1 µg/ml): 0.1 ng/mL
- TNFRp55 (HEK293-EBNA cells [5]; Compound 2 µg/ml): 0.2 ng/mL
- TNFRp55 (HEK293-EBNA cells [5]; Compound 4 µg/ml): 2.5 ng/mL
- TNFRp55 (HEK293-EBNA cells [5]; Compound 6 µg/ml): 6.3 ng/mL
- TNFRp55 (HEK293-EBNA cells [5]; Compound 10 µg/ml): 83 ng/mL

Compound: CN[C@@H]1[C@@H](O)[C@@H](O[C@@H]2[C@@H](O)[C@H](O[C@H]3O[C@H]([C@@H](C)O)[C@@H](O)[C@H](O)[C@H]3N)[C@@H](N)C[C@H]2N)OC[C@]1(C)O [Geneticin (G-418), Geneticin]
- Luciferase activity (HEK293-EBNA cells [1]; antibiotic 250 µg/ml in HL medium with Primatone RL (0.3%)): 93%
